Literature values, collected in US8785725B2, “Method for generating resistance against citrus diseases caused by insects, fungi, oomycetes, bacteria or nematodes” (Institute Valenciano de Investigaciones Agrarias, priority 2009, dated 2014).

Question: With `C=C(C)C1CC=C(C)CC1` (stereo not drawn) [d-limonene, 1-methyl-4-(1-methylethenyl)cyclohexene] as the molecule, how does the miscibility with alcohol (alcohol) read?
Answer: Its miscibility with alcohol is “miscible with alcohol”.

Question: What about the solubility in water (water) of the same molecule?
Answer: Its solubility in water is “insoluble in water”.
